Measurements taken from PMC5218480 (PLoS ONE, 2017).

System: MV-4-11 cells
Assay: Gene expression microarray analysis (Affymetrix PrimeView) and GSEA
Type: cell-based, human
Set-up: RFU PODN (11730768_x_at) / Fold change /veh PODN (11730768_x_at) / RFU LINC00158 (11744669_a_at) / Fold change /veh LINC00158 (11744669_a_at) / RFU DUSP10 (11751237_a_at) / Fold change /veh DUSP10 (11751237_a_at) / RFU ID3 (11757404_x_at) / Fold change /veh ID3 (11757404_x_at) / RFU PLEKHG5 (11737974_s_at) / Fold change /veh PLEKHG5 (11737974_s_at) / RFU LRRC4B (11730491_at) / Fold change /veh LRRC4B (11730491_at) / RFU GIMAP4 (11747438_a_at) / Fold change /veh GIMAP4 (11747438_a_at) / RFU KRT8 (11758183_x_at) / Fold change /veh KRT8 (11758183_x_at) / RFU CNN1 (11734310_a_at) / Fold change /veh CNN1 (11734310_a_at) / RFU VPS37D (11726825_at) / Fold change /veh VPS37D (11726825_at) / RFU C10orf10 (11716522_x_at) / Fold change /veh C10orf10 (11716522_x_at) / RFU KIR2DL2 /// KIR2DL4 /// KIR2DL5A /// KIR2DL5B /// KIR2DS1 /// KIR2DS2 /// KIR2DS3 /// KIR2DS4 /// KIR3DL3 /// KIR3DL3 /// KIR3DS1 (11738374_at) / Fold change /veh KIR2DL2 /// KIR2DL4 /// KIR2DL5A /// KIR2DL5B /// KIR2DS1 /// KIR2DS2 /// KIR2DS3 /// KIR2DS4 /// KIR3DL3 /// KIR3DL3 /// KIR3DS1 (11738374_at) / RFU C1QL1 (11718748_at) / Fold change /veh C1QL1 (11718748_at) / RFU TMPRSS4 (11747572_a_at) / Fold change /veh TMPRSS4 (11747572_a_at) / RFU HAMP (11756126_x_at) / Fold change /veh HAMP (11756126_x_at) / RFU RNFT2 (11725882_a_at) / Fold change /veh RNFT2 (11725882_a_at) / RFU NR4A2 (11747474_a_at) / Fold change /veh NR4A2 (11747474_a_at) / RFU ABCC12 (11746883_a_at) / Fold change /veh ABCC12 (11746883_a_at) / RFU TMEM136 (11760407_x_at) / Fold change /veh TMEM136 (11760407_x_at) / RFU CLDN22 /// WWC2 (11732394_at) / Fold change /veh CLDN22 /// WWC2 (11732394_at) / RFU HLA-DPB1 (11760878_x_at) / Fold change /veh HLA-DPB1 (11760878_x_at) / RFU SPINT1 (11716480_a_at) / Fold change /veh SPINT1 (11716480_a_at) / RFU GAP43 (11754022_s_at) / Fold change /veh GAP43 (11754022_s_at) / RFU A4GNT (11735810_at) / Fold change /veh A4GNT (11735810_at) / RFU PRB3 (11715151_x_at) / Fold change /veh PRB3 (11715151_x_at) / RFU TUBB4B (11761932_at) / Fold change /veh TUBB4B (11761932_at) / RFU CAPN14 (11732068_a_at) / Fold change /veh CAPN14 (11732068_a_at) / RFU TMCC2 (11721928_a_at) / Fold change /veh TMCC2 (11721928_a_at) / RFU IRGQ (11745062_a_at) / Fold change /veh IRGQ (11745062_a_at) / RFU FAM174B (11720279_a_at) / Fold change /veh FAM174B (11720279_a_at) / RFU TMPRSS4 (11748680_a_at) / Fold change /veh TMPRSS4 (11748680_a_at) / RFU FAM212B (11763350_a_at) / Fold change /veh FAM212B (11763350_a_at) / RFU PLEKHG5 (11743358_a_at) / Fold change /veh PLEKHG5 (11743358_a_at) / RFU ZSCAN30 (11745921_a_at) / Fold change /veh ZSCAN30 (11745921_a_at) / RFU CMKLR1 (11741424_a_at) / Fold change /veh CMKLR1 (11741424_a_at) / RFU LOC101060620 /// MAPK8IP1 (11723275_at) / Fold change /veh LOC101060620 /// MAPK8IP1 (11723275_at) / RFU SPTSSB (11747773_x_at) / Fold change /veh SPTSSB (11747773_x_at) / RFU PRSS12 (11739890_at) / Fold change /veh PRSS12 (11739890_at) / RFU BIN1 (11741810_x_at) / Fold change /veh BIN1 (11741810_x_at) / RFU WNT11 (11732464_a_at) / Fold change /veh WNT11 (11732464_a_at) / RFU C10orf10 (11716521_a_at) / Fold change /veh C10orf10 (11716521_a_at) / RFU C5orf56 (11738089_at) / Fold change /veh C5orf56 (11738089_at) / RFU CYB561 (11721691_x_at) / Fold change /veh CYB561 (11721691_x_at) / RFU ANKRD19P (11752326_a_at) / Fold change /veh ANKRD19P (11752326_a_at) / RFU OR2T12 /// OR2T33 /// OR2T8 (11738714_s_at) / Fold change /veh OR2T12 /// OR2T33 /// OR2T8 (11738714_s_at) / RFU VCAN (11748164_a_at) / Fold change /veh VCAN (11748164_a_at) / RFU JSRP1 (11732532_at) / Fold change /veh JSRP1 (11732532_at) / RFU KRTAP10-11 (11738290_x_at) / Fold change /veh KRTAP10-11 (11738290_x_at) / RFU MYO3A (11730013_a_at) / Fold change /veh MYO3A (11730013_a_at) / RFU EBF3 (11725865_a_at) / Fold change /veh EBF3 (11725865_a_at) / RFU CAMK2N1 (11719241_x_at) / Fold change /veh CAMK2N1 (11719241_x_at) / RFU C5orf56 (11738088_a_at) / Fold change /veh C5orf56 (11738088_a_at) / RFU OLFML3 (11715873_a_at) / Fold change /veh OLFML3 (11715873_a_at) / RFU LOC100653217 /// NTM (11731650_a_at) / Fold change /veh LOC100653217 /// NTM (11731650_a_at) / RFU MAPK11 (11762145_a_at) / Fold change /veh MAPK11 (11762145_a_at) / RFU FIZ1 (11724087_x_at) / Fold change /veh FIZ1 (11724087_x_at) / RFU OASL (11726364_x_at) / Fold change /veh OASL (11726364_x_at) / RFU SOX15 (11748057_x_at) / Fold change /veh SOX15 (11748057_x_at) / RFU CD79A (11719716_a_at) / Fold change /veh CD79A (11719716_a_at) / RFU HIST1H1D (11736915_at) / Fold change /veh HIST1H1D (11736915_at) / RFU CASKIN2 (11723855_a_at) / Fold change /veh CASKIN2 (11723855_a_at) / RFU LOC730098 (11760151_x_at) / Fold change /veh LOC730098 (11760151_x_at) / RFU OR4N2 (11742367_at) / Fold change /veh OR4N2 (11742367_at) / RFU PRRT2 (11749266_a_at) / Fold change /veh PRRT2 (11749266_a_at) / RFU SNX32 (11753110_a_at) / Fold change /veh SNX32 (11753110_a_at) / RFU CDHR5 (11726645_a_at) / Fold change /veh CDHR5 (11726645_a_at) / RFU RCAN1 (11760418_a_at) / Fold change /veh RCAN1 (11760418_a_at) / RFU FAM167A (11723789_a_at) / Fold change /veh FAM167A (11723789_a_at) / RFU FAM26E (11764081_at) / Fold change /veh FAM26E (11764081_at) / RFU ISYNA1 (11749810_s_at) / Fold change /veh ISYNA1 (11749810_s_at) / RFU ACY1 (11761880_at) / Fold change /veh ACY1 (11761880_at) / RFU 11764098_at / Fold change /veh 11764098_at / RFU SAMD14 (11745864_x_at) / Fold change /veh SAMD14 (11745864_x_at) / RFU NPB (11741838_a_at) / Fold change /veh NPB (11741838_a_at) / RFU TMPRSS6 (11731388_a_at) / Fold change /veh TMPRSS6 (11731388_a_at) / RFU KRTAP10-2 (11738614_at) / Fold change /veh KRTAP10-2 (11738614_at) / RFU ARHGAP8 /// PRR5-ARHGAP8 (11727945_x_at) / Fold change /veh ARHGAP8 /// PRR5-ARHGAP8 (11727945_x_at) / RFU KRTAP5-7 /// NADSYN1 (11734609_at) / Fold change /veh KRTAP5-7 /// NADSYN1 (11734609_at) / RFU RASL12 (11751679_a_at) / Fold change /veh RASL12 (11751679_a_at) / RFU CDKN2B (11736163_a_at) / Fold change /veh CDKN2B (11736163_a_at) / RFU PRF1 (11729649_at) / Fold change /veh PRF1 (11729649_at) / RFU, ZNF638 /// ZNF638-IT1 / Fold change vs veh, ZNF638 /// ZNF638-IT1 / RFU, PANK3 / Fold change vs veh, PANK3 / RFU, SH3YL1 / Fold change vs veh, SH3YL1 / RFU, ZEB2 / Fold change vs veh, ZEB2 / RFU, NRIP1 / Fold change vs veh, NRIP1 / RFU, PTTG1IP / Fold change vs veh, PTTG1IP / RFU, CAPN2 / Fold change vs veh, CAPN2 / RFU, MED14 / Fold change vs veh, MED14 / RFU, SNORA58 / Fold change vs veh, SNORA58 / RFU, C1orf63 / Fold change vs veh, C1orf63 / RFU, LRRFIP1 / Fold change vs veh, LRRFIP1 / RFU, NDUFAF7 / Fold change vs veh, NDUFAF7 / RFU, SLC12A2 / Fold change vs veh, SLC12A2 / RFU, IBTK / Fold change vs veh, IBTK / RFU, ESF1 / Fold change vs veh, ESF1 / Fold change vs veh, TMEM50B / RFU, TAOK1 / Fold change vs veh, TAOK1 / RFU, ACBD3 / Fold change vs veh, ACBD3 / RFU, TMA16 / Fold change vs veh, TMA16 / RFU, RWDD3 / Fold change vs veh, RWDD3 / RFU, BCAT1 / Fold change vs veh, BCAT1 / RFU, EDEM3 / Fold change vs veh, EDEM3 / RFU, TMEM33 / Fold change vs veh, TMEM33 / RFU, WDR75 / Fold change vs veh, WDR75 / RFU, AHCTF1 / Fold change vs veh, AHCTF1 / RFU, TFRC / Fold change vs veh, TFRC / RFU, ZDHHC17 / Fold change vs veh, ZDHHC17 / RFU, NOM1 / Fold change vs veh, NOM1 / RFU, ARL8B / Fold change vs veh, ARL8B / RFU, ZBTB11 / Fold change vs veh, ZBTB11 / RFU, TAMM41 / Fold change vs veh, TAMM41 / RFU, KIAA1704 /// LOC100996395 / Fold change vs veh, KIAA1704 /// LOC100996395 / RFU, ING1 / Fold change vs veh, ING1 / RFU, TRMT61B / Fold change vs veh, TRMT61B / RFU, FUBP3 / Fold change vs veh, FUBP3 / RFU, TP53 / Fold change vs veh, TP53 / RFU, TNKS2 / Fold change vs veh, TNKS2 / RFU, ZFP14 / Fold change vs veh, ZFP14 / RFU, ACTR2 / Fold change vs veh, ACTR2 / RFU, PPP3R1 / Fold change vs veh, PPP3R1 / RFU, PIK3R1 / Fold change vs veh, PIK3R1 / RFU, HNRNPA1 / Fold change vs veh, HNRNPA1 / RFU, RNF170 / Fold change vs veh, RNF170 / RFU, ZNF28 / Fold change vs veh, ZNF28 / RFU, RNGTT / Fold change vs veh, RNGTT / RFU, OGT / Fold change vs veh, OGT / RFU, BRD1 / Fold change vs veh, BRD1 / RFU, MARS / Fold change vs veh, MARS / RFU, ZNF655 / Fold change vs veh, ZNF655 / RFU, FAHD1 / Fold change vs veh, FAHD1 / RFU, BDP1 / Fold change vs veh, BDP1 / RFU, LRRCC1 / Fold change vs veh, LRRCC1 / RFU, ARID1A / Fold change vs veh, ARID1A / RFU, ZNF146 / Fold change vs veh, ZNF146 / RFU, ZNF330 / Fold change vs veh, ZNF330 / RFU, GPN3 / Fold change vs veh, GPN3 / RFU, C9orf123 / Fold change vs veh, C9orf123 / RFU, N4BP2L2 / Fold change vs veh, N4BP2L2 / RFU, ARFIP1 / Fold change vs veh, ARFIP1 / RFU, FAM179B / Fold change vs veh, FAM179B / RFU, BCL10 / Fold change vs veh, BCL10 / RFU, UHRF1BP1L / Fold change vs veh, UHRF1BP1L / RFU, BET1 / Fold change vs veh, BET1 / RFU, CNOT2 / Fold change vs veh, CNOT2 / RFU, ZNF268 / Fold change vs veh, ZNF268 / Fold change vs veh, ZNF507 / RFU, DGCR2 / Fold change vs veh, DGCR2 / RFU, WDSUB1 / Fold change vs veh, WDSUB1 / Fold change vs veh, HSP90B1 /// MIR3652 / RFU, ADSS / Fold change vs veh, ADSS / RFU, GK / Fold change vs veh, GK / RFU, ZNF148 / Fold change vs veh, ZNF148 / RFU, TAF9 / Fold change vs veh, TAF9 / RFU, SLC1A5 / Fold change vs veh, SLC1A5 / RFU, SLMO2 / Fold change vs veh, SLMO2 / RFU, ABCC4 / Fold change vs veh, ABCC4 / RFU, LOC101060439 /// RAP1B / Fold change vs veh, LOC101060439 /// RAP1B / RFU, RFX7 / Fold change vs veh, RFX7 / RFU, GTPBP10 / Fold change vs veh, GTPBP10 / RFU, CNEP1R1 / Fold change vs veh, CNEP1R1 / RFU, BIVM-ERCC5 /// ERCC5 / Fold change vs veh, BIVM-ERCC5 /// ERCC5 / RFU, ILF3 / Fold change vs veh, ILF3 / RFU 11762660_at / Fold change /veh 11762660_at / RFU VCAN (11757783_s_at) / Fold change /veh VCAN (11757783_s_at) / RFU DDX43 (11728927_at) / Fold change /veh DDX43 (11728927_at) / RFU KRT8 (11758188_x_at) / Fold change /veh KRT8 (11758188_x_at) / RFU NKD1 (11759106_at) / Fold change /veh NKD1 (11759106_at) / RFU SRD5A1 (11742802_a_at) / Fold change /veh SRD5A1 (11742802_a_at) / RFU TPSAB1 /// TPSB2 (11721975_s_at) / Fold change /veh TPSAB1 /// TPSB2 (11721975_s_at) / RFU GSTM3 (11746129_a_at) / Fold change /veh GSTM3 (11746129_a_at) / RFU IL23R (11737362_x_at) / Fold change /veh IL23R (11737362_x_at) / RFU TMEM51 (11727254_a_at) / Fold change /veh TMEM51 (11727254_a_at) / RFU PIWIL2 (11732686_x_at) / Fold change /veh PIWIL2 (11732686_x_at) / RFU ORM1 (11744905_x_at) / Fold change /veh ORM1 (11744905_x_at) / RFU CCDC152 (11743942_at) / Fold change /veh CCDC152 (11743942_at) / RFU ECM1 (11717891_a_at) / Fold change /veh ECM1 (11717891_a_at) / RFU IL23R (11748794_a_at) / Fold change /veh IL23R (11748794_a_at) / RFU TNFAIP8L3 (11732012_x_at) / Fold change /veh TNFAIP8L3 (11732012_x_at) / RFU MBOAT4 (11741988_at) / Fold change /veh MBOAT4 (11741988_at) / RFU 11764193_at / Fold change /veh 11764193_at / RFU TMEM53 (11763286_at) / Fold change /veh TMEM53 (11763286_at) / RFU MAGEB2 (11727129_at) / Fold change /veh MAGEB2 (11727129_at) / RFU TMEM200A (11744735_a_at) / Fold change /veh TMEM200A (11744735_a_at) / RFU CCDC152 (11751479_a_at) / Fold change /veh CCDC152 (11751479_a_at) / RFU FAM211A (11726209_a_at) / Fold change /veh FAM211A (11726209_a_at) / RFU RGS16 (11746705_a_at) / Fold change /veh RGS16 (11746705_a_at) / RFU VCAN (11755009_s_at) / Fold change /veh VCAN (11755009_s_at) / RFU RHOB (11743442_s_at) / Fold change /veh RHOB (11743442_s_at) / RFU RGS16 (11720943_a_at) / Fold change /veh RGS16 (11720943_a_at) / RFU RGS16 (11720944_at) / Fold change /veh RGS16 (11720944_at) / RFU, VPS4B / Fold change vs veh, VPS4B / RFU, CREB1 / Fold change vs veh, CREB1 / RFU, DNAJC13 / Fold change vs veh, DNAJC13 / RFU, GNAQ / Fold change vs veh, GNAQ / RFU, CDK5R1 / Fold change vs veh, CDK5R1 / RFU, ZRANB3 / Fold change vs veh, ZRANB3 / RFU, CUL4A / Fold change vs veh, CUL4A / RFU, CCNY / Fold change vs veh, CCNY / RFU, UFL1 / Fold change vs veh, UFL1 / RFU, COG3 / Fold change vs veh, COG3 / RFU, DIAPH2 / Fold change vs veh, DIAPH2 / RFU, SKA2 / Fold change vs veh, SKA2 / RFU, AFF3 / Fold change vs veh, AFF3 / RFU, LMF1 / Fold change vs veh, LMF1 / RFU, IPO11 / Fold change vs veh, IPO11 / RFU, DFFB / Fold change vs veh, DFFB / RFU, FOXP1 / Fold change vs veh, FOXP1 / RFU, CARD8 / Fold change vs veh, CARD8 / RFU, STRN3 / Fold change vs veh, STRN3 / RFU, ADK / Fold change vs veh, ADK / RFU, RASSF2 / Fold change vs veh, RASSF2 / RFU, WIPF1 / Fold change vs veh, WIPF1 / RFU, LARP1B / Fold change vs veh, LARP1B / RFU, RASA1 / Fold change vs veh, RASA1 / RFU, RB1 / Fold change vs veh, RB1 / RFU, PPFIA1 / Fold change vs veh, PPFIA1 / RFU, MAT2A / Fold change vs veh, MAT2A / RFU, CCT5 / Fold change vs veh, CCT5 / RFU, WDR92 / Fold change vs veh, WDR92 / RFU, CUX1 / Fold change vs veh, CUX1 / RFU, TTC7A / Fold change vs veh, TTC7A / RFU, TMEM135 / Fold change vs veh, TMEM135 / RFU, DEPTOR / Fold change vs veh, DEPTOR / RFU, CPM / Fold change vs veh, CPM / RFU, DNAJB6 / Fold change vs veh, DNAJB6 / RFU, CACNA2D3 / Fold change vs veh, CACNA2D3 / RFU, DTX4 / Fold change vs veh, DTX4 / RFU, TFCP2 / Fold change vs veh, TFCP2 / RFU, GMCL1 /// GMCL1P1 / Fold change vs veh, GMCL1 /// GMCL1P1 / RFU, AEBP2 / Fold change vs veh, AEBP2 / RFU, SNHG1 /// SNORD22 /// SNORD25 /// SNORD26 /// SNORD27 /// SNORD28 /// SNORD29 /// SNORD31 / Fold change vs veh, SNHG1 /// SNORD22 /// SNORD25 /// SNORD26 /// SNORD27 /// SNORD28 /// SNORD29 /// SNORD31 / Fold change (Aza/veh), C12orf56 (ProbeSet 11735607_a_at) / Fold change (ACY-1035/veh), C12orf56 (ProbeSet 11735607_a_at) / Fold change (Aza/veh), FGFR1OP (ProbeSet 11751329_s_at) / Fold change (ACY-1035/veh), FGFR1OP (ProbeSet 11751329_s_at) / Fold change (Aza/veh), VPS36 (ProbeSet 11739960_a_at) / Fold change (ACY-1035/veh), VPS36 (ProbeSet 11739960_a_at) / RFU SYPL1 (11715823_x_at) / Fold change /veh SYPL1 (11715823_x_at) / RFU IGFBP7 (11715501_s_at) / Fold change /veh IGFBP7 (11715501_s_at) / RFU REEP3 (11722064_at) / Fold change /veh REEP3 (11722064_at) / RFU IGLL1 (11728026_x_at) / Fold change /veh IGLL1 (11728026_x_at): dose or concentration left out as unconfirmed
Conditions: MV-4-11 cells, 48 hours

In the case of `Nc1ncn([C@@H]2O[C@H](CO)[C@@H](O)[C@H]2O)c(=O)n1` [azacitidine], the “Fold change /veh OR2T12 /// OR2T33 /// OR2T8 (11738714_s_at)” value is reported as 1.07.
